Data set [1] is described as follows: Drug metabolism in mouse liver microsomes assessed as compound oxidization incubated for 90 mins in presence of NAPDH. In kind it is ADME, Microsome. The conditions noted are these: read-out: Drug metabolism. On the technique in general: Liver microsomes are vesicles of endoplasmic reticulum, rich in cytochrome P450 enzymes.
Data set [2] has as its target T1, Sigma intracellular receptor 2 (Rattus norvegicus, UniProt Q5U3Y7).
T1 sequence (Q5U3Y7 whole entry): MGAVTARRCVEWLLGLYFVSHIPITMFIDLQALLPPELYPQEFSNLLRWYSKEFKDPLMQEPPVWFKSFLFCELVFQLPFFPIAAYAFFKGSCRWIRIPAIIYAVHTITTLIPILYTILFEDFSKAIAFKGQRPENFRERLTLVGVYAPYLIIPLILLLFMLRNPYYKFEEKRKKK
The experiment in a line: Displacement of [3H]di-O-tolylguanidine from sigma 2 receptor in rat liver membrane by competitive radioligand receptor binding assay. It counts as cell membranes. (In general: In a radioligand displacement assay an active substance lowers the binding of a labelled ligand.)

Data set [3] in a line: Distribution coefficient between n-Octanol and aqueous buffer, logD of the compound in pH 7.4 buffer by LC/MS analysis. In kind it is physicochemical.
The target in data set [4] is Albumin (Homo sapiens, UniProt P02768). The experiment in a line: Protein binding in human serum albumin by HPAC analysis. It counts as ADME. The conditions noted are these: read-out: PB (converted).
For data set [5], the system named is Mus musculus. The experiment in a line: Antiallodynic activity in capsaicin-induced mechanical allodynia CD1 mouse model assessed as reduction in mechanical allodynia administered subcutaneously preincubated for 30 min followed by capsaicin injection and measured after 15 mins by Von Frey filament assay. In kind it is functional, organism-based. The conditions noted are these: dose 8-32 mg/kg, route sc, time 45.0 min, DDE = dose-dependent effect.

For data set [6], the target named is Sigma non-opioid intracellular receptor 1 (Cavia porcellus, UniProt Q60492).
Sequence of Sigma non-opioid intracellular receptor 1 (Q60492 whole entry): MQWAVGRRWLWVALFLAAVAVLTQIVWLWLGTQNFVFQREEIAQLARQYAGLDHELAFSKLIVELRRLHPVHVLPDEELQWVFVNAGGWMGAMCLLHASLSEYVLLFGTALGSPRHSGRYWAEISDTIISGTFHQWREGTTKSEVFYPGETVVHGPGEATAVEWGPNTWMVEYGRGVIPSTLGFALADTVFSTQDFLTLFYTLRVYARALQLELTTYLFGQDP

Sequence of Albumin (P02768 whole entry): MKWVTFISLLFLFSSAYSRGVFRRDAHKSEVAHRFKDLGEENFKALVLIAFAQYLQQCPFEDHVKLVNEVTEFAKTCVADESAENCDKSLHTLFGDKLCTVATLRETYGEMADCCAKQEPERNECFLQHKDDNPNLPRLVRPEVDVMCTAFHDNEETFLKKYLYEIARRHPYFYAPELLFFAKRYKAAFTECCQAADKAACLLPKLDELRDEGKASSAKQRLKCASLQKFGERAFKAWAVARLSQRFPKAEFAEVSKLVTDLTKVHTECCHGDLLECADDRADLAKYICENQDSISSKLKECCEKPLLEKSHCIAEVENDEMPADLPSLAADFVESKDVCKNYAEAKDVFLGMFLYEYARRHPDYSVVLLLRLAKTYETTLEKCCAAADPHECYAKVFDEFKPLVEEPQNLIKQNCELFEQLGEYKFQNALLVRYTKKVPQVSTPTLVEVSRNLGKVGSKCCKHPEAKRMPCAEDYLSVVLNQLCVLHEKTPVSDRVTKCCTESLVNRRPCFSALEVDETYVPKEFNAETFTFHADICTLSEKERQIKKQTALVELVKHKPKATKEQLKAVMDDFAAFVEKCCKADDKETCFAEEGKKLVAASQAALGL

For `O[C@@H](CN1[C@@H]2CC[C@H]1C/C(=C\c1ccc(F)cc1)C2)c1ccccc1`, the metabolised at 1.5 h in data set [1] is 32%. The values for the Ki in data set [2] and in data set [6] were 10 nM and 0.8 nM, respectively. Also, the logD (usually lipophilicity at a set pH, counting ionised and neutral species) in data set [3] came to 3.06. The fraction unbound in data set [4] was 0.05. Also, in data set [5], the Activity entry is “Dde”.

`O[C@H](CN1[C@@H]2CC[C@H]1C/C(=C/c1ccc(F)cc1)C2)c1ccccc1`: the results for the Ki in data set [2] and in data set [6] were 11 nM and 0.45 nM, respectively.

Consider `O[C@H](CN1[C@@H]2CC[C@H]1C/C(=C\c1ccc(F)cc1)C2)c1ccccc1`, for which the Ki (as a rule, the dissociation constant of the complex between target and ligand, obtained from inhibition or displacement) in data set [2] was determined as 27 nM; in data set [6], 6.6 nM.

For the compound `OC(CN1CCC(Cc2ccc(F)cc2)CC1)c1ccc(Cl)cc1` (centres undefined) [ELIPRODIL], the Ki in data set [2] is 71 nM; in data set [6], 94 nM.

For the compound `O[C@@H](CN1[C@@H]2CC[C@H]1C/C(=C/c1ccc(F)cc1)C2)c1ccccc1`, the Ki in data set [2] was determined as 29 nM; in data set [6], 18 nM.

The record behind these values is ChEMBL document CHEMBL5154708, “Synthesis of tropane-based σ1 receptor antagonists with antiallodynic activity” (Eur J Med Chem, 2022).
